In test [1] the test system is Methicilin resistant Staphylococcus aureus 32 (MRSA 32). Kind of test: Minimum Inhibitory Concentration (MIC) determination, agar dilution. The format is cell-based. The settings on record: Mueller Hinton agar, 24 hrs at 35° C. In general terms: Agar dilution tests growth on a series of plates holding different concentrations.
Test [2] deals with Methicilin resistant Staphylococcus epidermidis 118 (MRSE 118). Described as above. The format is cell-based. The settings on record: Mueller Hinton agar, 24 hrs at 35° C.
Test [3] deals with Vancomycin resistant enterococci 303 (VRE 303). The description is as above. The settings on record: Enterococcus, Mueller Hinton agar, 24 hrs at 35° C. The format is cell-based.
Test [4] deals with Streptococcus pneumoniae 49619 (SPN 49619). Kind of test: Minimum Inhibitory Concentration (MIC) determination, agar with 5% sheep blood. The format is cell-based. The note with it: Mueller Hinton agar containing 5% sheep blood.
For test [5], the system named is Streptococcus pyogenes 801 (SPY 801). The description is as above. The settings on record: Mueller Hinton agar containing 5% sheep blood. The format is cell-based.
For test [6], the system named is methicillin resistant Staphylococcus aureus strain MRSA 32. Kind of test: Murine Assay Procedure (in vivo efficacy, MRSA 32 infection). The settings on record: swiss mice infected intraperitoneally with MRSA 32, oral gavage 1 h after infection, repeat dose 3 hrs later, percentage survival on Day 7.

Values after ≈ are worked out from the molar mass of the structure shown. Some results are limits rather than exact numbers.

What is called MIC is the lowest concentration that inhibits growth of the organism. A word on the ED50: it is the dose that gives a 50% effect, or the effect in half of the subjects. Read a high ED50 as weaker potency.

As to `CC(=O)NC[C@H]1CN(c2ccc(N3CCC4(CC3)COCCCO4)c(F)c2)C(=O)O1` [Example 164], the MIC in test [1] turned out to be 4 mg/L (≈ 9.49 µM); in test [2], 2 mg/L (≈ 4.75 µM); in test [3], 8 mg/L (≈ 19 µM); in test [4], 4 mg/L (≈ 9.49 µM); in test [5], 4 mg/L (≈ 9.49 µM). In addition, it took a dose of 10 mg/kg to reach the 50% effect level in test [6] (ED50).

As for `CS(=O)(=O)OC[C@H]1CN(c2ccc(N3CCC(=O)CC3)c(F)c2)C(=O)O1` [Example 168, (R)—N-{3-[4-(4-oxo-piperidin-1-yl)-3-fluorophenyl]-2-oxo-oxazolidin-5-ylmethyl}-methanesulfonate], the MIC in test [1] worked out at 4 mg/L (≈ 10.4 µM); in test [2], 2 mg/L (≈ 5.18 µM); in test [3], 4 mg/L (≈ 10.4 µM); in test [4], 4 mg/L (≈ 10.4 µM); in test [5], 4 mg/L (≈ 10.4 µM). In test [6], this molecule gave a 50% effective dose (ED50) of 10 mg/kg.

Turning to `CS(=O)(=O)OC[C@H]1CN(c2cc(F)c(N3CCC(=O)CC3)c(F)c2)C(=O)O1` [Example 169, (R)—N-{3-[4-(4-oxo-piperidin-1-yl)-3,5-difluorophenyl]-2-oxo-oxazolidin-5-ylmethyl}-methanesulfonate], the MIC in test [1] is 0.5 mg/L (≈ 1.24 µM); in test [2], 0.25 mg/L (≈ 0.618 µM); in test [3], 1 mg/L (≈ 2.47 µM); in test [4], 0.5 mg/L (≈ 1.24 µM); in test [5], 2 mg/L (≈ 4.95 µM). For the same molecule, in test [6], the 50% effect level (ED50) was put at a dose of 10 mg/kg.

Regarding `CS(=O)(=O)OC[C@H]1CN(c2ccc(N3CCC(O)CC3)c(F)c2)C(=O)O1` [Example 172, (R)—N-{3-[4-(4-hydroxy-piperidin-1-yl)-3-fluorophenyl]-2-oxo-oxazolidin-5-ylmethyl}-methanesulfonate], the MIC was 8 mg/L (≈ 20.6 µM) in test [1]; 8 mg/L (≈ 20.6 µM) in test [2]; 16 mg/L (≈ 41.2 µM) in test [3]; > 8 mg/L in test [4]; > 8 mg/L in test [5]. Further, the 50% effect level in test [6] (ED50) was put at a dose of 10 mg/kg.

With `CS(=O)(=O)OC[C@H]1CN(c2cc(F)c(N3CCC(O)CC3)c(F)c2)C(=O)O1` [Example 173, (R)—N-{3-[4-(4-hydroxy-piperidin-1-yl)-3,5-difluorophenyl]-2-oxo-oxazolidin-5-ylmethyl}-methanesulfonate], the MIC in test [1] amounted to 2 mg/L (≈ 4.92 µM); in test [2], 2 mg/L (≈ 4.92 µM); in test [3], 4 mg/L (≈ 9.84 µM); in test [4] it was 2 mg/L (≈ 4.92 µM); in test [5] it was 4 mg/L (≈ 9.84 µM). Besides, in test [6], the ED50 was found to be 5 mg/kg.

As to `CC(=O)NC[C@H]1CN(c2ccc(N3CCC(O)(CN=[N+]=[N-])CC3)cc2)C(=O)O1` [Example 178, (S)—N-{3-[4-(4-azidomethyl-4-hydroxy-piperidin-1-yl)-phenyl]-2-oxo-oxazolidin-5-ylmethyl}-acetamide], the MIC in test [1] was determined as 4 mg/L (≈ 10.3 µM); in test [2], 2 mg/L (≈ 5.15 µM); in test [3], 8 mg/L (≈ 20.6 µM); in test [4], 4 mg/L (≈ 10.3 µM); in test [5], 4 mg/L (≈ 10.3 µM). This molecule also returned an ED50 in test [6] of 10 mg/kg.

For the molecule `CC(=O)NC[C@H]1CN(c2cc(F)c(N3CCC(O)(CN=[N+]=[N-])CC3)c(F)c2)C(=O)O1` [Example 186, (S)—N-{3-[4-(4-Azidomethyl-4-hydroxypiperidin-1-yl)-3,5-difluorophenyl]-2-oxo-oxazolidin-5-ylmethyl}-acetamide], the MIC turned out to be 2 mg/L (≈ 4.71 µM) in test [1]; 1 mg/L (≈ 2.36 µM) in test [2]; 2 mg/L (≈ 4.71 µM) in test [3]; 1 mg/L (≈ 2.36 µM) in test [4]; 1 mg/L (≈ 2.36 µM) in test [5]. In addition, in test [6], the 50% effect level (ED50) was put at a dose of 5 mg/kg.

For the molecule `CC(=O)NC[C@H]1CN(c2ccc(N3CCOCC3)c(F)c2)C(=O)O1` [Linezolid, reference compound], the MIC in test [1] amounted to 2 mg/L (≈ 5.93 µM); in test [2] it was 1 mg/L (≈ 2.96 µM); in test [3] it was 2 mg/L (≈ 5.93 µM); in test [4] it was 2 mg/L (≈ 5.93 µM); in test [5] it was 2 mg/L (≈ 5.93 µM). Also, in test [6], the 50% effect level (ED50) was put at a dose of 5 mg/kg.
